Laboratory results from patent US20230150986A1, “ANTAGONISTS OF THE MUSCARINIC ACETYLCHOLINE RECEPTOR M4” (Vanderbilt University, priority 2019, published 2023).

Test system: Sprague-Dawley rats
Assay: Haloperidol-induced catalepsy assay
Type: in vivo, rat
Conditions: for reversal of catalepsy: haloperidol 1.5 mg/kg i.p.
Method: Drugs. Compound 1 was weighed and 2% Tween 80/0.5% methylcellulose were placed on top of the compound in serum bottles. This was sonicated for about an hour. All doses were administrated at 10 mL/kg p.o. The final solution is a suspension. Haloperidol was dissolved in 1 mL of 8% lactic acid and taken to 50 mL with sterile water. Haloperidol was dosed at 1 mL/kg i.p.
1. Haloperidol 1.5 mg/kg, i.p.
2. Compound 1, 0.3-3 mg/kg, p.o.
3. Vehicle (2% tween 80/0.5% MC), p.o.
Animals. Male Sprague-Dawley rats weighing between 290-326 grams (Envigo, Inc., Indianapolis, Ind.) were used. They were housed in the animal care facility certified by the American Association for the Accreditation of Laboratory Animal Care (AAALAC) under a 12-hour light/dark cycle (lights on: 7 a.m.; lights off: 7 p.m.) and had free access to food and water. The experimental protocols performed during the light cycle were approved by the Institutional Animals Care and Use Committee of Vanderbilt University and conformed to the guidelines established by the National Research Council Guide for the Care and Use of Laboratory Animals.
Haloperidol-induced catalepsy. Adult male Sprague-Dawley rats are injected with 1.5 mg/kg of haloperidol i.p. Thirty minutes later, the animals are administered 0.3-3 mg/kg of Compound 1 or vehicle. Cataleptic behavior is determined 60 minutes later by placing the forelimbs on a bar raised 6 cm above the table and recording the amount of time it takes for the rat to withdraw the forelimbs with a cutoff of 60 seconds. Data are expressed as mean latency to withdraw ±SEM or percent inhibition of catalepsy ±SEM.
Data Analysis. The data for these dose-response studies were analyzed by a one way analysis of variance. If there was a main effect of dose, then each dose group was compared with each of the other treated groups using GraphPad Prism (version 4.03, GraphPad, La Jolla, Calif.).

For `Fc1cc(F)c(F)c(-c2ccc(N[C@H]3C[C@@H]4CN(CC5CCOCC5)C[C@@H]4C3)nn2)c1` [Compound 1, (3aR,5s,6aS)-2-((tetrahydro-2H-pyran-4-yl)methyl)-N-(6-(2,3,5-trifluorophenyl)pyridazin-3-yl)octahydrocyclopenta[c]pyrrol-5-amine], the “reversal of cataleptic behavior” value (0.3 mg/kg) was 26.2 0/0, the reversal of catalepsy (1 mg/kg p.o., rat, p<0.01) was 50.9% and the reversal of catalepsy (3 mg/kg p.o., rat, p<0.001) was 65.2%. For the same compound, the “latency to withdraw (forelimbs) compared to vehicle treated control animals” value (0.3-3 mg/kg p.o., rat, F3,36=8.7 p<0.001) was “significantly reduced”.
